{"source": "patent US8987502B2", "about": "“Oleanolic acid amidate derivatives, preparation methods and uses thereof” (Hangzhou Bensheng Pharmaceutical Co., Ltd., priority 2011, dated 2015)", "key": {"K562/adr": {"test_system": "K562/adr", "test": "MTT leukemia cell proliferation inhibition, K562/adr", "format": "cell-based", "conditions": "Homo sapiens, 72 h", "source_text": "(§1) Leukemia cell lines: leukemia cell lines: K562/adr (drug-resistant, chronic myeloid leukemia, CML), NB4 (acute promyelocytic leukemia, AML), Kasumi-1 (acute myeloid leukemia M2 type, AML-M2), Jurkat (acute lymphoblastic leukemia, ALL), all of which are donated by Cancer Research Institute of Zhejiang University, China; and H9 (acute lymphoblastic leukemia, ALL), which is purchased from China Center for Type Culture Collection (CCTCC).\n(§2) Reagents: The standard sample of oleanolic acid (OA) is purchased from Hua Kang Pharmaceutical Raw Material Factory, Shifang City, Sichuan, China; and the amidated oleanolic acid derivatives are prepared according to the present invention.\n(§3) Obtaining 6000 well-growing leukemia cells and inoculating them into wells of a 96-well cell culture plate. The culture medium is the 1640 cell culture medium containing 10% fetal bovine serum. After adding the amidated oleanolic acid derivatives of different concentrations and mixing uniformly, placing the plate in a carbon dioxide cell incubator (5% CO2) at 37° C. and incubated for 72 hours. Then the relative number of viable cells is determined by the MTT method. In this experiment, the cell proliferation inhibition rate in control group (not treated with any compound) is set as 0%."}, "NB4": {"test_system": "NB4", "test": "MTT leukemia cell proliferation inhibition, NB4", "format": "cell-based", "conditions": "Homo sapiens, NB-4", "source_text": "as §1, §2, §3"}, "Kasumi-1": {"test_system": "Kasumi-1", "test": "MTT leukemia cell proliferation inhibition, Kasumi-1", "format": "cell-based", "conditions": "Homo sapiens", "source_text": "as §1, §2, §3"}, "H9": {"test_system": "H9", "test": "MTT leukemia cell proliferation inhibition, H9", "format": "cell-based, human", "source_text": "as §1, §2, §3"}, "Jurkat": {"test_system": "Jurkat", "test": "MTT leukemia cell proliferation inhibition, Jurkat", "format": "cell-based", "conditions": "Homo sapiens, 72 h", "source_text": "as §1, §2, §3"}, "RPMI8226": {"test_system": "RPMI8226", "test": "MTT multiple myeloma cell proliferation inhibition, RPMI8226", "format": "cell-based", "conditions": "Homo sapiens, RPMI-8226", "protocol": "Multiple myeloma cell lines: RPMI8226 (multiple myeloma), purchased from Fuxiang Bio-tech Co. Ltd., Shanghai, China.\nas §3"}, "A549": {"test_system": "A549", "test": "MTT solid tumor cell proliferation inhibition, A549", "format": "cell-based, human", "conditions": "Homo sapiens", "protocol": "(§4) Human solid tumor cell lines: Hep-2 (laryngeal carcinoma), A549 (human lung cancer), CaES-17 (esophageal cancer cell), PC-3 (prostate cancer), CNE (nasopharyngeal carcinoma cell), and SK-OV-3 (ovarian cancer cell), all of which are purchased from China Center For Type Culture Collection; RKO (human colon adenocarcinoma cell), MGC 803 (human gastric cancer cell), MG63 (osteosarcoma) and U87 MG (malignant glioma cell), all of which are purchased from Fuxiang Bio-tech Co. Ltd., Shanghai, China; PANC-1 (pancreatic cancer), Hep G2 (human liver cancer cell), Becap37 (human breast cancer cell), and Hela (human cervical cancer cell), all of which are donated by Cancer Research Institute of Zhejiang University, China.\n(§5) Obtaining 4000 well-growing human solid tumor cells and inoculating them into wells of a 96-well cell culture plate. The culture medium is DMEM High Glucose cell culture medium containing 10% fetal bovine serum. The plate is placed in a carbon dioxide cell incubator (5% CO2) at 37° C. for 24 hours for incubation. After being added with the amidated oleanolic acid derivatives of different concentrations and mixed uniformly, the plate is placed in a carbon dioxide cell incubator (5% CO2) at 37° C. for 72 hours for incubation. Then the relative number of the living cells is determined by the MTT method. In this experiment, the cell proliferation inhibition rate in control group (not treated with any compound) is set as 0%."}, "PANC-1": {"test_system": "PANC-1", "test": "MTT solid tumor cell proliferation inhibition, PANC-1", "format": "cell-based, human", "protocol": "as §4, §5"}, "Becap37": {"test_system": "Becap37", "test": "MTT solid tumor cell proliferation inhibition, Becap37", "format": "cell-based", "conditions": "Homo sapiens", "protocol": "as §4, §5"}, "MG 63": {"test_system": "MG 63", "test": "MTT solid tumor cell proliferation inhibition, MG 63", "format": "cell-based, human", "protocol": "as §4, §5"}, "Hep G2": {"test_system": "Hep G2", "test": "MTT solid tumor cell proliferation inhibition, Hep G2", "format": "cell-based", "conditions": "Homo sapiens, HepG2", "protocol": "as §4, §5"}, "RKO": {"test_system": "RKO", "test": "MTT solid tumor cell proliferation inhibition, RKO", "format": "cell-based", "conditions": "Homo sapiens, 72 h", "protocol": "as §4, §5"}, "U87 MG": {"test_system": "U87 MG", "test": "MTT solid tumor cell proliferation inhibition, U87 MG", "format": "cell-based, human", "conditions": "Homo sapiens, U-87 MG, U87 MG, 72 h", "protocol": "as §4, §5"}, "Hela": {"test_system": "Hela", "test": "MTT solid tumor cell proliferation inhibition, Hela", "format": "cell-based, human", "protocol": "as §4, §5"}, "CaES-17": {"test_system": "CaES-17", "test": "MTT solid tumor cell proliferation inhibition, CaES-17", "format": "cell-based, human", "conditions": "Homo sapiens, CaEs17", "protocol": "as §4, §5"}, "CNE": {"test_system": "CNE", "test": "MTT solid tumor cell proliferation inhibition, CNE", "format": "cell-based, human", "protocol": "as §4, §5"}, "Hep-2": {"test_system": "Hep-2", "test": "MTT solid tumor cell proliferation inhibition, Hep-2", "format": "cell-based, human", "conditions": "Homo sapiens", "protocol": "as §4, §5"}, "MGC803": {"test_system": "MGC803", "test": "MTT solid tumor cell proliferation inhibition, MGC803", "format": "cell-based, human", "protocol": "as §4, §5"}, "PC-3": {"test_system": "PC-3", "test": "MTT solid tumor cell proliferation inhibition, PC-3", "format": "cell-based, human", "conditions": "Homo sapiens", "protocol": "as §4, §5"}, "SK-OV-3": {"test_system": "SK-OV-3", "test": "MTT solid tumor cell proliferation inhibition, SK-OV-3", "format": "cell-based, human", "protocol": "as §4, §5"}, "[1]": {"conditions": "16 μg/mL compound, read-out: IR (inhibition rate)"}}, "data": [{"smiles": "CC1(C)CC[C@]2(NC(=O)c3cccnc3Cl)CC[C@]3(C)C(=CC[C@@H]4[C@@]5(C)CC[C@H](O)C(C)(C)[C@@H]5CC[C@]43C)[C@@H]2C1", "note": "[BS-OA-096]", "values": [{"measurement": "inhibition at 16 µg/mL", "setting": "K562/adr; [1]", "value": 81.9, "unit": "%"}, {"measurement": "IC50", "setting": "K562/adr; MTT", "value": 8.53, "unit": "µg/mL"}, {"measurement": "inhibition at 16 µg/mL", "setting": "NB4; NB4, 16 μg/mL compound, 72 h, read-out: IR (inhibition rate)", "value": 100, "unit": "%"}, {"measurement": "IC50", "setting": "NB4; NB4, 72 h, MTT", "value": 11.2, "unit": "µg/mL"}, {"measurement": "inhibition at 16 µg/mL", "setting": "Kasumi-1; Kasumi-1, 16 μg/mL compound, 72 h, read-out: IR (inhibition rate)", "value": 33.6, "unit": "%"}, {"measurement": "IC50", "setting": "Kasumi-1; Kasumi-1, 72 h, MTT", "value": "> 16", "unit": "µg/mL"}, {"measurement": "improvement of cell inhibition rate as compared with oleanolic acid", "setting": "H9; H9 cells", "value": "~4", "unit": "fold"}, {"measurement": "inhibition at 16 µg/mL", "setting": "H9; Homo sapiens, H9, 16 μg/mL compound, 72 h, read-out: IR (inhibition rate)", "value": 84, "unit": "%"}, {"measurement": "IC50", "setting": "H9; Homo sapiens, H9, 72 h, MTT", "value": 10.7, "unit": "µg/mL"}, {"measurement": "inhibition at 16 µg/mL", "setting": "Jurkat; [1]", "value": 55.3, "unit": "%"}, {"measurement": "IC50", "setting": "Jurkat; MTT", "value": 15.3, "unit": "µg/mL"}, {"measurement": "inhibition at 16 µg/mL", "setting": "RPMI8226; RPMI8226, 16 μg/mL compound, 72 h, read-out: IR (inhibition rate)", "value": 96.9, "unit": "%"}, {"measurement": "IC50", "setting": "RPMI8226; RPMI8226, 72 h, MTT", "value": 9.2, "unit": "µg/mL"}, {"measurement": "inhibition at 16 µg/mL", "setting": "A549; A549, 16 μg/mL compound, 72 h, read-out: IR (inhibition rate)", "value": 18.7, "unit": "%"}, {"measurement": "IC50", "setting": "A549; A549, 72 h, MTT", "value": "> 16", "unit": "µg/mL"}, {"measurement": "inhibition at 16 µg/mL", "setting": "PANC-1; Homo sapiens, PANC-1, 16 μg/mL compound, 72 h, read-out: IR (inhibition rate)", "value": 59.1, "unit": "%"}, {"measurement": "IC50", "setting": "PANC-1; Homo sapiens, PANC-1, 72 h, MTT", "value": 14.7, "unit": "µg/mL"}, {"measurement": "improvement of inhibition rate as compared with oleanolic acid", "setting": "PANC-1; PANC-1 cells", "value": "~7", "unit": "fold"}, {"measurement": "inhibition at 16 µg/mL", "setting": "Becap37; Becap37, 16 μg/mL compound, 72 h, read-out: IR (inhibition rate)", "value": 39.3, "unit": "%"}, {"measurement": "IC50", "setting": "Becap37; Becap37, 72 h, MTT", "value": "> 16", "unit": "µg/mL"}, {"measurement": "IC50", "setting": "MG 63; Homo sapiens, MG 63, 72 h, MTT", "value": 13.8, "unit": "µg/mL"}, {"measurement": "IR (inhibition rate)", "setting": "MG 63; MG 63, 16 μg/mL compound, 72 h", "value": 78.1, "unit": "%"}, {"measurement": "inhibition at 16 µg/mL", "setting": "Hep G2; Hep G2, 16 μg/mL compound, 72 h, read-out: IR (inhibition rate)", "value": 40.1, "unit": "%"}, {"measurement": "IC50", "setting": "Hep G2; Hep G2, 72 h, MTT", "value": 18.5, "unit": "µg/mL"}, {"measurement": "inhibition at 16 µg/mL", "setting": "RKO; [1]", "value": 59.4, "unit": "%"}, {"measurement": "IC50", "setting": "RKO; MTT", "value": 14.7, "unit": "µg/mL"}, {"measurement": "inhibition at 16 µg/mL", "setting": "U87 MG; [1]", "value": 38.5, "unit": "%"}, {"measurement": "IC50", "setting": "U87 MG; MTT", "value": "> 16", "unit": "µg/mL"}, {"measurement": "improvement of inhibition rate as compared with oleanolic acid", "setting": "Hela; Hela cells", "value": "~4", "unit": "fold"}, {"measurement": "inhibition at 16 µg/mL", "setting": "Hela; Homo sapiens, Hela, 16 μg/mL compound, 72 h, read-out: IR (inhibition rate)", "value": 88.9, "unit": "%"}, {"measurement": "IC50", "setting": "Hela; Homo sapiens, Hela, 72 h, MTT", "value": 9.43, "unit": "µg/mL"}, {"measurement": "inhibition at 16 µg/mL", "setting": "CaES-17; CaES-17, 16 μg/mL compound, 72 h, read-out: IR (inhibition rate)", "value": 39.8, "unit": "%"}, {"measurement": "IC50", "setting": "CaES-17; CaES-17, 72 h, MTT", "value": "> 16", "unit": "µg/mL"}, {"measurement": "improvement of inhibition rate as compared with oleanolic acid", "setting": "CNE; CNE cells", "value": "~2", "unit": "fold"}, {"measurement": "inhibition at 16 µg/mL", "setting": "CNE; Homo sapiens, CNE, 16 μg/mL compound, 72 h, read-out: IR (inhibition rate)", "value": 63.9, "unit": "%"}, {"measurement": "IC50", "setting": "CNE; Homo sapiens, CNE, 72 h, MTT", "value": 14, "unit": "µg/mL"}, {"measurement": "inhibition at 16 µg/mL", "setting": "Hep-2; Hep-2, 16 μg/mL compound, 72 h, read-out: IR (inhibition rate)", "value": 20.6, "unit": "%"}, {"measurement": "IC50", "setting": "Hep-2; Hep-2, 72 h, MTT", "value": "> 16", "unit": "µg/mL"}, {"measurement": "inhibition at 16 µg/mL", "setting": "MGC803; Homo sapiens, MGC-803, MGC803, 16 μg/mL compound, 72 h, read-out: IR (inhibition rate)", "value": 70, "unit": "%"}, {"measurement": "IC50", "setting": "MGC803; Homo sapiens, MGC-803, MGC803, 72 h, MTT", "value": 13.6, "unit": "µg/mL"}, {"measurement": "improvement of inhibition rate as compared with oleanolic acid", "setting": "MGC803; MGC803 cells", "value": "~3", "unit": "fold"}, {"measurement": "inhibition at 16 µg/mL", "setting": "PC-3; PC-3, 16 μg/mL compound, 72 h, read-out: IR (inhibition rate)", "value": 48.1, "unit": "%"}, {"measurement": "IC50", "setting": "PC-3; PC-3, 72 h, MTT", "value": 18.3, "unit": "µg/mL"}, {"measurement": "inhibition at 16 µg/mL", "setting": "SK-OV-3; Homo sapiens, SK-OV-3, 16 μg/mL compound, 72 h, read-out: IR (inhibition rate)", "value": 97, "unit": "%"}, {"measurement": "IC50", "setting": "SK-OV-3; Homo sapiens, SK-OV-3, 72 h, MTT", "value": 10.1, "unit": "µg/mL"}, {"measurement": "improvement of cell inhibition rate as compared with oleanolic acid", "setting": "SK-OV-3; SKOV-3 cells", "value": "> 12", "unit": "fold"}]}]}
